Values of other authors as cited in patent publication US20100184765A1, “Protein Kinase Inhibitors and Methods for Using Thereof” (IRM LLC, priority 2007, published 2010).

Target: Flt-1 (Homo sapiens, UniProt P17948)
Settings: VEGF binding to Flt-1, literature report

Flt-1, sequence (P17948 27-1338, species assumed): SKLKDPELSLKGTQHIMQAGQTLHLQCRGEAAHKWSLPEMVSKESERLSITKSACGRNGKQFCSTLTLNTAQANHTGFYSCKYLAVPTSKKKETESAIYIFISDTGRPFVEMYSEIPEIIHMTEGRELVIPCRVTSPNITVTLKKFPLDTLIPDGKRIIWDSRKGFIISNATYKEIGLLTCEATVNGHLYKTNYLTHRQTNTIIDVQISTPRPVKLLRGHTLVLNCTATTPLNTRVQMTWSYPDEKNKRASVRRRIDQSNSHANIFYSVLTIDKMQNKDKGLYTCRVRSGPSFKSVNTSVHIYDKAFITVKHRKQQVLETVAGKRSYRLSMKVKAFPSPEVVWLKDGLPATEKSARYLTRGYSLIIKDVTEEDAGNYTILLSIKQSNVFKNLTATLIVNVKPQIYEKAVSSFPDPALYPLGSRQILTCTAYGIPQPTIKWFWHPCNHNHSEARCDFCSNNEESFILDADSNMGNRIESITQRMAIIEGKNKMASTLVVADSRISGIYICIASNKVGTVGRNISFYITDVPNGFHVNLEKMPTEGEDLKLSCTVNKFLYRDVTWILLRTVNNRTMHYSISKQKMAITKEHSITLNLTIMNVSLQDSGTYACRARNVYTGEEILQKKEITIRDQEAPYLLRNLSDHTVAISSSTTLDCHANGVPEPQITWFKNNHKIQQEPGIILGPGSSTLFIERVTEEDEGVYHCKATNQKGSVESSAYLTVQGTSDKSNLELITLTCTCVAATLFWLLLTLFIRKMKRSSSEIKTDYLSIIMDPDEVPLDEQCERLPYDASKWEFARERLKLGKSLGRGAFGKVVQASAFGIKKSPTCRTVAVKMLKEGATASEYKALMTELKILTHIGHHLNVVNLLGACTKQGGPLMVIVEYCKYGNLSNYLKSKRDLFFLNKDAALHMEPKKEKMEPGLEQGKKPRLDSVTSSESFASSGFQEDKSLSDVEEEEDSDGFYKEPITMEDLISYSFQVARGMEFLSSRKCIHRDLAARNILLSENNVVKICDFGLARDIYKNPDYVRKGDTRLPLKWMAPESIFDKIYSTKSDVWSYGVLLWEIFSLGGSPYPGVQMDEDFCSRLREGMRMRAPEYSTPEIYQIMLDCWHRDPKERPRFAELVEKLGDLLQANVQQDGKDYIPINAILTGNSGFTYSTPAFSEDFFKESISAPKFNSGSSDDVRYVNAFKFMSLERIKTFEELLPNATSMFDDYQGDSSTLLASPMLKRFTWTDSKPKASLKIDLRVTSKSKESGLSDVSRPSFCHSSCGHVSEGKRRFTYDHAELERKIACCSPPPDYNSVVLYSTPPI

VEGF
Kd: 0.02 nM
